Measured values published in the NIST ThermoML archive (doi:10.1016/j.fluid.2019.05.001).
± gives the expanded uncertainty stated by the source.

Details: Crystal; DTA

## CCOC(=O)CCC[N+]1(C)CCCC1.[Br-] [1-(4-ethoxy-4-oxobutyl)-1-methylpyrrolidinium bromide]
  Normal melting temperature: 73.00 ± 1 °C
